How the values were obtained:
Assay type in all cases: in vivo
[1] = test system: barnyardgrass (Echinochloa crus-galli L.); experiment: Test Example 32: pot, soil treatment, metobromuron + chlorpropham; conditions: soil, read-out: Growth inhibition rate of barnyardgrass (%) Measured value
From the text: (§1) When the herbicidal activity in a case where two active ingredients are combined, is larger than the simple sum of the respective herbicidal activities of the two active ingredients (the expected activity), it is called a synergistic effect. The activity expected by the combination of two active ingredients can be calculated as follows (Colby S. R., “Weed”, vol. 15, p. 20-22, 1967). E=α+β−(α×β[…]) where α: growth inhibition rate when treated with x (g/ha) of herbicide X, • β: growth inhibition rate when treated with y (g/ha) of herbicide Y, • E: growth inhibition rate expected when treated with x (g/ha) of herbicide X and y (g/ha) of herbicide Y.
(§2) On the 19th day after treatment, the state of growth of barnyardgrass was visually observed and evaluated in accordance with the following standards. The growth inhibition rate (%) [measured value] and the growth inhibition rate (%) [calculated value] calculated by the Colby's method, are shown in Table 2.
(§3) Growth inhibition rate (%)=inhibition rate) (%) of 0 (equivalent to the non-treated area) to 100 (complete kill)
Soil was put into a 1/300,000 ha pot, and seeds of barnyardgrass (Echinochloa crus-galli L.) were sown. On the day after seeding, predetermined amounts of SC containing metobromuron as active ingredient (same as in Test Example 1) and EC containing chlorpropham as active ingredient (same as in Test Example 1) were diluted with water corresponding to 1,000 L per hectare and applied for soil treatment.
On the 26th day after treatment, the state of growth of barnyardgrass was visually observed and evaluated in the same manner as in Test Example 1.

[2] = test system: annual bluegrass (Poa annua L.); experiment: Test Example 19: pot, soil treatment, metobromuron + chlorpropham; conditions: soil, read-out: Growth inhibition rate of annual bluegrass (%) Measured value
[3] = test system: large crabgrass (Digitaria sanquinalis L.); experiment: Test Example 29: pot, soil treatment, metobromuron + indanofan; conditions: soil, read-out: Growth inhibition rate of large crabgrass (%) Measured value
From the text: as §1, §2, §3
Soil was put into a 1/300,000 ha pot, and seeds of large crabgrass (Digitaria sanquinalis L.) were sown. On the day after seeding, predetermined amounts of SC containing metobromuron as active ingredient (same as in Test Example 1) and WP containing indanofan as active ingredient were diluted with water corresponding to 1,000 L per hectare and applied for soil treatment.
On the 20th day after treatment, the state of growth of large crabgrass was visually observed and evaluated in the same manner as in Test Example 1.

[4] = test system: black nightshade (Solanum nigrum L.); experiment: Test Example 26: pot, soil treatment, metobromuron + prosulfocarb; conditions: soil, read-out: Growth inhibition rate of black nightshade (%) Measured value
From the text: as §1, §2, §3
(§4) Soil was put into a 1/300,000 ha pot, and seeds of black nightshade (Solanum nigrum L.) were sown. On the day after seeding, predetermined amounts of SC containing metobromuron as active ingredient (same as in Test Example 1) and EC containing prosulfocarb as active ingredient (trade name: BOXER NYUZAI, manufactured by Syngenta) were diluted with water corresponding to 1,000 L per hectare and applied for soil treatment.
On the 21st day after treatment, the state of growth of black nightshade was visually observed and evaluated in the same manner as in Test Example 1.

[5] = test system: common lambsquarters (Chenopodium album L.); experiment: Test Example 30: pot, soil treatment, metobromuron + thiobencarb; conditions: soil, read-out: Growth inhibition rate of common lambsquarters (%) Measured value
From the text: as §1, §2, §3
as §4, with “common lambsquarters (Chenopodium album” for “black nightshade (Solanum nigrum”, “thiobencarb” for “prosulfocarb”, “Saturn” for “BOXER”, “KUMIAI CHEMICAL INDUSTRY Co., Ltd.)” for “Syngenta)”
On the 20th day after treatment, the state of growth of common lambsquarters was visually observed and evaluated in the same manner as in Test Example 1.

[6] = test system: barnyardgrass (Echinochloa crus-qalli L.); experiment: Test Example 21: pot, soil treatment, metobromuron + prometryn; conditions: soil, read-out: Growth inhibition rate of barnyardgrass (%) Measured value
From the text: as §1, §2, §3
Soil was put into a 1/300,000 ha pot, and seeds of barnyardgrass (Echinochloa crus-qalli L.) were sown. On the day after seeding, predetermined amounts of SC containing metobromuron as active ingredient (same as in Test Example 1) and WP containing prometryn as active ingredient (trade name: Gesagard 50, manufactured by Nippon Kayaku Co., Ltd.) were diluted with water corresponding to 1,000 L per hectare and applied for soil treatment.
On the 21st day after treatment, the state of growth of barnyardgrass was visually observed and evaluated in the same manner as in Test Example 1.

`CON(C)C(=O)Nc1ccc(Br)cc1` [Metobromuron, 3-(4-bromophenyl)-1-methoxy-1-methylurea] gave an inhibition at 375 g/ha [1] of 40%, an inhibition at 375 g/ha [2] of 50% and an inhibition at 250 g/ha [3] of 30%. The inhibition at 375 g/ha [3] was 50%, the inhibition at 562.5 g/ha [3] was 80% and the inhibition at 250 g/ha [4] was 25%. For the same molecule, the inhibition at 375 g/ha [4] was 50%, the inhibition at 562.5 g/ha [4] was 68% and the inhibition at 250 g/ha [5] was 78%. It also gave an inhibition at 750 g/ha [6] of 20%, an inhibition at 1000 g/ha [6] of 43% and an inhibition at 1500 g/ha [6] of 72%.
